We go through 1 compound from patent publication US20240261271A1, “APPLICATION OF HYDRONIDONE IN PREPARATION OF DRUG FOR TREATING OR PREVENTING CHRONIC HEPATITIS B WITH LIVER FIBROSIS” (priority 2021, published 2024).

Molecules are shown by their SMILES.

Holding throughout (assay type): in vivo, human
Experiment [1] deals with liver tissue inflammation. Briefly: Phase II clinical study: liver tissue inflammation grading. The note with it: after 52 weeks of treatment. The method, then:
(§1) This is a randomized, double-blind, placebo-controlled, multicenter, and dose-finding phase II clinical study with foundational treatment. In the clinical trial, three different dose test groups and a placebo control group were set on the basis of the entecavir capsule antiviral treatment, and the planned sample amount of each group was 60 cases, totaling 240 cases. The three dose test groups were 180 mg group, 270 mg group, and 360 mg group, respectively. The proportion of each test group to the control group was 1:1:1:1, and the cases were distributed randomly. […] Negative conversion rate of HBV DNA after treatment between the groups was compared using CMH-λ2 test or Fisher's exact probability method. • 2. Liver tissue elasticity reduction after treatment between the groups was compared using Kruskal-Wallis H test. • 3. […] The recovery rate of the liver function index after treatment between the groups was compared using CMH-λ2 test or Fisher's exact probability method, and the found values of each index between the groups were compared using variance analysis or Kruskal-Wallis H test.

The test system of experiment [2] is ALT (alanine aminotransferase). Briefly: Phase II clinical study: ALT index of liver function. To be noted: FAS, after 52 weeks of treatment. The method, then:
as §1

For experiment [3], the system named is liver stiffness in chronic hepatitis B with hepatic fibrosis. Briefly: Phase II clinical study: liver transient elastography LSM (kPa). To be noted: FAS, after 52 weeks of treatment. The method, then: as §1

`Cc1ccc(=O)n(-c2ccc(O)cc2)c1` [hydronidone]: the “proportion of the subjects with the liver tissue inflammation ameliorated” value is on record as 21 (58.33%) n(%) in experiment [1] (180 mg group), 20 (57.14%) n(%) in experiment [1] (270 mg group) and 19 (55.88%) n(%) in experiment [1] (360 mg group). For the same compound, the “mean (standard deviation) of variation of the ALT index compared with the baseline” value in experiment [2] (180 mg group) is reported as 44.71 (53.50); in experiment [2] (270 mg group), 66.47 (78.13); in experiment [2] (360 mg group), 43.58 (59.87). The “proportion of the subjects with ALT indexes determined to turn normal from abnormal (baseline)” value is given as 15 (78.95%) n(%) in experiment [2] (180 mg group), 18 (85.71%) n(%) in experiment [2] (270 mg group) and 16 (88.89%) n(%) in experiment [2] (360 mg group). Further, the “mean decline rate (standard deviation) of the liver transient elastography LSM (kPa)” value in experiment [3] (180 mg group) came to 18.30%; in experiment [3] (270 mg group), 24.62%; in experiment [3] (360 mg group), 18.98%.
